Experiment [1] relates to MGC-803. The experiment can be described thus: Effect on LSD1 expression in human MGC803 cells up to 2.5 uM after 5 days by DAPI staining based immunofluorescence assay. Type of experiment: functional, cell-based.
Experiment [2] has as its target Lysine-specific histone demethylase 1A (Homo sapiens, UniProt O60341).
Description: Inhibition of recombinant full length LSD1 (unknown origin) expressed in Escherichia coli BL21 (DE) using H3K4me2 substrate by fluorescence assay

Active and inactive are the calls of the source. The rule behind the calls is not given here.

On to `N/C(=N\O)c1cccc(/C=C/c2cc(O)c(O)cc2Br)c1`, for which the result in experiment [1] was inactive. With `N/C(=N\O)c1ccc(/C=C/c2cc(O)c(O)cc2Br)cc1`, in experiment [1], the result was inactive. In turn, `Oc1ccc(/C=C/c2cc(O)cc(O)c2)cc1` [RESVERATROL] displayed an IC50 in experiment [2] of 10.2 µM.

One may read the IC50 as the concentration needed to halve the response being measured. Low values mean greater potency in that assay, high ones weaker potency in that assay.

Source of the values: ChEMBL document CHEMBL4002561, “Discovery of resveratrol derivatives as novel LSD1 inhibitors: Design, synthesis and their biological evaluation” (Eur J Med Chem, 2017).
